This note sets out measurements from ChEMBL document CHEMBL4138090, “4-Phenyl quinoline derivatives as potential serotonin receptor ligands with antiproliferative activity” (Eur J Med Chem, 2017).

Data set [1] deals with 5-hydroxytryptamine receptor 2A (Homo sapiens) (UniProt P28223). Description: Antagonist activity at 5-HT2A receptor in human MCF7 cells assessed as inhibition of serotonin-induced calcium flux at 5 uM measured at 5 secs time interval for 2 mins by Fluo-4AM dye based fluorescence microscopic analysis. Format: functional, cell-based.
The subject of data set [2] is MCF7. Description: Cell cycle arrest in human MCF7 cells assessed as accumulation at sub-G0/G1 phase after 48 hrs by propidium iodide staining based flow cytometry. It is filed as functional.
Data set [3] deals with MCF7. Description: Cell cycle arrest in human MCF7 cells assessed as accumulation at G1/S phase after 48 hrs by propidium iodide staining based flow cytometry. It is filed as functional.
Data set [4] deals with MCF7. Kind of data set: Induction of morphological changes in human MCF7 cells assessed as loss in cellular integrity at 5 uM after 72 hrs. Format: functional, cell-based.
For data set [5], the system named is MCF7. Description: Antiproliferative activity against human MCF7 cells at 5 uM after 72 hrs in presence of serotonin by MTT assay. It is filed as functional, cell-based.
The test system of data set [6] is MCF7. Description: Cell cycle arrest in human MCF7 cells assessed as accumulation at G2/M phase after 48 hrs by propidium iodide staining based flow cytometry. Format: functional.
Data set [7] concerns MCF7. Description: Antiproliferative activity against human MCF7 cells after 72 hrs by MTT assay. Format: functional, cell-based. The conditions noted are these: MCF7, 72 h.
Data set [8] has as its target 5-hydroxytryptamine receptor 2A (Homo sapiens) (UniProt P28223). Description: Antagonist activity at 5-HT2A receptor in human MCF7 cells assessed as reduction in ERK1/2 phosphorylation at 5 uM after 24 to 48 hrs by Western blot analysis relative to control. It is filed as functional, cell-based.
Data set [9] relates to MCF7. Kind of data set: Induction of morphological changes in human MCF7 cells assessed as cell detachment at 5 uM after 72 hrs. Format: functional, cell-based.
For data set [10], the system named is MCF7. Description: Induction of apoptosis in human MCF7 cells at 5 uM after 48 hrs by Annexin V-FITC/propidium iodide staining based flow cytometry. Format: functional, cell-based.
Data set [11] has as its system MCF7. Kind of data set: Antiproliferative activity against human MCF7 cells at 5 uM after 72 hrs by MTT assay. Format: functional, cell-based.
Data set [12] relates to MCF7. Kind of data set: Induction of apoptosis in human MCF7 cells assessed as early apoptotic cells at 5 uM after 48 hrs by Annexin V-FITC/propidium iodide staining based flow cytometry. It is filed as functional, cell-based.
Data set [13] can be described thus: Cytotoxicity against HEK293 cells assessed as reduction in cell viability after 72 hrs by MTT assay. As to conditions: human, read-out: LD50. It is filed as cell-based.

pIC50: −log10 of the molar value. Activity calls are given as the source filed them. The rule behind the calls is not given here. Bounds are passed on as bounds.

Sequence of 5-hydroxytryptamine receptor 2A (Homo sapiens) (P28223 whole entry): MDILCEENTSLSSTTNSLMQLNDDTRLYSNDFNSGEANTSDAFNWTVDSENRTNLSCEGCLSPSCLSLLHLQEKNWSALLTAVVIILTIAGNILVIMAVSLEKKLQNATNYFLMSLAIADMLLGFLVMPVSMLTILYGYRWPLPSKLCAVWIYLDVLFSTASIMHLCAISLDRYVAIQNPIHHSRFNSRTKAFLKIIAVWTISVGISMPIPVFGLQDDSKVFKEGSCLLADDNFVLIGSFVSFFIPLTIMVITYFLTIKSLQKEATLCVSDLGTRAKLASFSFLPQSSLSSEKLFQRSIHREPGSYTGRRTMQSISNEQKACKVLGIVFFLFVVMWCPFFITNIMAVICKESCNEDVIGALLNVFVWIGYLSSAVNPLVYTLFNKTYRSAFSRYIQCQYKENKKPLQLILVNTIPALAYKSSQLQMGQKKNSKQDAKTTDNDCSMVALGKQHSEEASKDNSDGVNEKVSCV

For the compound `Cc1c(N2CCN(C)CC2)nc2ccccc2c1-c1ccccc1`, in data set [1], the inhibition entry is “Active”.
Regarding `CCN1CCN(c2nc3ccccc3c(-c3ccccc3)c2C)CC1`, the outcome with MCF7 [2], in the data set with MCF7 [4], with MCF7 [9], in the data set on MCF7 [10], with MCF7 [11] and in the data set on MCF7 [12] was Active. Moreover, the outcome with MCF7 [3], in the data set with MCF7 [5] and in the data set with MCF7 [6] was inactive. Besides, the pIC50 in the data set on MCF7 [7] is 5.21. For the same compound, the inhibition in data set [8] is more than 50%. In addition, in data set [1], the inhibition result is “Active”. The CC50 at 72 h in [13] is more than 24 µM.
In the case of `CCN1CCN(c2nc3ccccc3c(-c3ccccc3)c2-c2ccccc2)CC1`, the outcome with MCF7 [5] was inactive. For the same compound, the pIC50 in the data set with MCF7 [7] was 5.13. In addition, the outcome in the data set on MCF7 [11] was Active. Besides, the inhibition entry in data set [1] was “Active”. For the same compound, the CC50 at 72 h in data set [13] is more than 24 µM.
